A word on the MIC50: it is the lowest concentration that inhibits either 50% of growth or 50% of the strains tested, depending on the study. For orientation: MIC90 means the lowest concentration that inhibits either 90% of growth or 90% of the strains tested, depending on the study. What is called zone of inhibition is the extent of the growth-free halo in a diffusion test. Higher therefore signals wide suppression of growth.

Converted amounts (≈) assume the structure as drawn.

In experiment [1] the test system is WT Mtb Erdman strain. Briefly: Microplate Alamar Blue Assay (MABA). Type of experiment: cell-based. Particulars: Mycobacterium tuberculosis, Middlebrook 7H9 media, 7 days at 37° C., resazurin 24 hours; for MIC50: concentration that inhibits mycobacterial survival by 50%, read-out: MABA MIC50; for MIC90: concentration that inhibits mycobacterial survival by 90%, read-out: MABA MIC90. (Alamar Blue is a resazurin reagent that responds to reducing activity.)

Experiment [2] deals with WT Mtb Erdman. Put plainly: Disk zone of inhibition assay. Particulars: Mycobacterium tuberculosis, 240 h, radius of zone absent of bacterial growth, 5 μl of 100 mM stock in DMSO on disk, Middlebrook 7H10 agar, 10 days at 37° C. In kind it is cell-based.

`CCc1nc(NC2CC2)c2cc(C)sc2n1` [Example 0946, N-Cyclopropyl-2-ethyl-6-methylthieno[2,3-d]pyrimidin-4-amine]: in experiment [1], the MIC50 came to 0.633 µM (≈ 0.148 µg/mL) and the MIC90 was found to be 2.04 µM (≈ 0.476 µg/mL). In experiment [2], the zone of inhibition at 100000 µM (stock) was determined as 27 mm.

On to `CCc1nc(NCCCOC)c2cc(C)sc2n1` [Example 0941, 2-ethyl-N-(3-methoxypropyl)-6-methylthieno[2,3-d]pyrimidin-4-amine], for which, in experiment [1], the MIC50 amounted to 7.79 µM (≈ 2.07 µg/mL) and the MIC90 was determined as 16.3 µM (≈ 4.33 µg/mL). Further, the zone of inhibition at 100000 µM (stock) in experiment [2] is 4 mm.

For the compound `CCc1nc(NC2CC2)c2ccsc2n1` [Example 1074, N-Cyclopropyl-2-ethyl-thieno[2,3-d]pyrimidin-4-amine], in experiment [1], the MIC50 came to 6.1 µM (≈ 1.34 µg/mL) and the MIC90 stood at 22.7 µM (≈ 4.98 µg/mL). In experiment [2], the zone of inhibition at 100000 µM (stock) is 21 mm.

Turning to `CCCCNc1nc(C)nc2c1oc1ccccc12` [Example 0927, N-butyl-4-methyl-8-oxa-3,5-diazatricyclo[7.4.0.0^2,^7]trideca-1(9),2(7),3,5,10,12-hexaen-6-amine], in experiment [1], the MIC50 amounted to 1.77 µM (≈ 0.452 µg/mL) and the MIC90 stood at 4.02 µM (≈ 1.03 µg/mL). The same compound registered a zone of inhibition at 100000 µM (stock) in experiment [2] of 10 mm.

For `CCc1nc(NC2CC2)c2c(C)csc2n1` [Example 1701, N-Cyclopropyl-2-ethyl-5-methylthieno[2,3-d]pyrimidin-4-amine], in experiment [1], the MIC50 amounted to 9.77 µM (≈ 2.28 µg/mL) and the MIC90 was 16.1 µM (≈ 3.76 µg/mL). The zone of inhibition at 100000 µM (stock) in experiment [2] turned out to be 1.7 mm.

As for `CCc1nc(NCCCC(F)(F)F)c2ccsc2n1` [Example 1366, 2-Ethyl-N-(4,4,4-trifluorobutyl)thieno[2,3-d]pyrimidin-4-amine], in experiment [1], the MIC50 was determined as 0.00133 µM (≈ 0.000385 µg/mL) and the MIC90 was 0.00369 µM (≈ 0.00107 µg/mL). Further, the zone of inhibition at 100000 µM (stock) in experiment [2] was 14 mm.

For the compound `CCCCNc1nc(CC)nc2scc(C)c12` [Example 1699, N-Butyl-2-ethyl-5-methylthieno[2,3-d]pyrimidin-4-amine], in experiment [1], the MIC50 was 35.5 µM (≈ 8.85 µg/mL) and the MIC90 was 45.5 µM (≈ 11.3 µg/mL). In experiment [2], the zone of inhibition at 100000 µM (stock) was 6 mm.

Turning to `CCc1nc(NCCC(C)C)c2cc(C)sc2n1` [Example 1022, 2-Ethyl-6-methyl-N-(3-methylbutyl)thieno[2,3-d]pyrimidin-4-amine], in experiment [1], the MIC50 is 0.329 µM (≈ 0.0867 µg/mL) and the MIC90 was determined as 0.96 µM (≈ 0.253 µg/mL). The compound further came in with a zone of inhibition at 100000 µM (stock) in experiment [2] of 14 mm.

Turning to `CCc1nc(NC2CCCC2)c2cc(C)sc2n1` [Example 0951, N-cyclopentyl-2-ethyl-6-methylthieno[2,3-d]pyrimidin-4-amine], in experiment [1], the MIC50 is over 50 µM and the MIC90 is over 50 µM. In experiment [2], this compound came in with a zone of inhibition at 100000 µM (stock) of 1 mm.

Take `CCc1nc(N(CC)CC)c2cc(C)sc2n1` [Example 0943, N,N,2-triethyl-6-methylthieno[2,3-d]pyrimidin-4-amine]: in experiment [1], the MIC50 was over 50 µM and the MIC90 is over 50 µM. In addition, the zone of inhibition at 100000 µM (stock) in experiment [2] came to 4 mm.

`CCCCNc1nc(C(F)(F)F)nc2sccc12` [Example 1545, N-Butyl-2-(trifluoromethyl)thieno[2,3-d]pyrimidin-4-amine]: in experiment [1], the MIC50 came to 26.9 µM (≈ 7.41 µg/mL) and the MIC90 amounted to 30.5 µM (≈ 8.4 µg/mL). The zone of inhibition at 100000 µM (stock) in experiment [2] stood at 1.8 mm.

With `CCc1nc(N)c2cc(C)sc2n1` [Example 1060, 2-Ethyl-6-methyl-thieno[2,3-d]pyrimidin-4-amine], in experiment [1], the MIC50 is 10 µM (≈ 1.93 µg/mL) and the MIC90 is 17.2 µM (≈ 3.32 µg/mL). The zone of inhibition at 100000 µM (stock) in experiment [2] stood at 0 mm.

Turning to `FC(F)(F)c1nc(NC2CC2)c2ccsc2n1` [Example 1541, N-Cyclopropyl-2-(trifluoromethyl)thieno[2,3-d]pyrimidin-4-amine], in experiment [1], the MIC50 worked out at 36.8 µM (≈ 9.54 µg/mL) and the MIC90 is over 50 µM. In experiment [2], this compound yielded a zone of inhibition at 100000 µM (stock) of 1.8 mm.

In the case of `CCc1nc(NCCCO)c2cc(C)sc2n1` [Example 0936, 3-({2-ethyl-6-methylthieno[2,3-d]pyrimidin-4-yl}amino)propan-1-ol], in experiment [1], the MIC50 came out at 26 µM (≈ 6.54 µg/mL) and the MIC90 came to 48.2 µM (≈ 12.1 µg/mL). Also, in experiment [2], the zone of inhibition at 100000 µM (stock) was 0.75 mm.

As for `CCc1nc(N2CCCCC2)c2cc(C)sc2n1` [Example 0942, 1-{2-ethyl-6-methylthieno[2,3-d]pyrimidin-4-yl}piperidine], in experiment [1], the MIC50 stood at 47.5 µM (≈ 12.4 µg/mL) and the MIC90 is over 50 µM. This compound returned a zone of inhibition at 100000 µM (stock) in experiment [2] of 5 mm.

Values taken from patent US20220117968A1, “THIENO[2,3-D)PYRIMIDINES AND BENZOFURO(3,2-D)PYRIMIDINES AS ANTIMICROBIAL AGENTS” (Saint Louis University, priority 2017, published 2022).
